The subject of this experiment is transglutaminase (TGase I). Put plainly: Transglutaminase (Tgase) ELISA assay in cultured keratinocytes with retinol and boosters. The experiment is classed as cell-based, human. As to conditions: for TG as % C, Compd 3: Compound 3 alone; for TG as % C, Compd 3 / TG as % C Compd 2 / TG as % C Compd 1: concentration one log below IC20; for IC20: IC20 (80% of control). In general terms: In an ELISA, binding on a coated surface is turned into a signal by an enzyme label.

[1] abbreviates: in the presence of 10^-7M retinol.
[2] abbreviates: Compound 2 alone, in the presence of 10^-7M retinol.
Where [3] appears, read: B1 table, booster concentration which with 10^−7 M retinol inhibits TGase by 50%, same values in the 19th table (Molar), read-out: Overall TG (IC 50).
Setting [4] is: Tgase inhibition, compound tested individually in the presence of 10^-7 M retinol, read-out: IC50.
Where [5] appears, read: compound tested individually in the presence of 10^-7 M retinol.
Where [6] appears, read: Compound 1 alone, in the presence of 10^-7M retinol.

Values joined by “and” are separate entries in the source; they are usually repeats but may differ in a detail not shown here. Equal values may be shown once. Read-outs that look alike come from different tables or passages of the source.

Turning to `CCCCCCCCCCCCCCCC(=O)NCCO` [Palmitamide Monoethanolamide], the “TG as % C, Compd 3” value under setting [1] is reported as 95 % C.
Regarding `Nn1nnc2ccccc21`, the “TG as % C Compd 2” value was 105 % C under setting [2]; 105 % C and 126 % C (compound 2 alone, with retinol); 98 % C (compound 2 alone, with retinol, listed as Aminobenzotriazole). Moreover, the “TG as % C, Compd 3” value under setting [1] is 105 % C.
Regarding Castor Oil MEA, the IC50 was found to be 32.5 µM under setting [3] and 32.5 µM under setting [4]. Further, the “TG as % C Compd 1” value runs as follows: (compound 1 alone, with retinol) 110 % C; (compound 1 alone, with retinol, listed as Caster oil MEA) 96 % C.
`O=C1CCc2ccccc2N1`: under setting [2], the “TG as % C Compd 2” value worked out at 90 % C. Moreover, the “TG as % C, Compd 3” value under setting [1] was found to be 90 % C.
What is called IC20 is the point of the concentration-response curve where the effect stands at 20%. With Alpha-Ionone, the IC50 is 927 µM under setting [3] and 927 µM under setting [4]. For the same compound, under setting [5], the 20% effect concentration (IC20) worked out at 142 µM. Under “compound 1 alone, with retinol”, the “TG as % C Compd 1” value is on record as 101 % C.
Turning to `CCCCCCC(O)CCCCCCCCCCC(=O)O` (stereo not drawn) [12-Hydroxystearic Acid], the “TG as % C, Compd 3” value under setting [1] worked out at 95 % C. Also, the IC50 (Homo sapiens, Keratinocyte, B4 table, with 10^−7 M retinol, read-out: Overall TG (IC 50)) turned out to be 29.1 µM. For the same compound, under setting [5], the IC20 stood at 14.5 µM.
For `CC/C=C\C/C=C\C/C=C\CCCCCCCC(=O)O` [Linolenic Acid], the “TG as % C, Compd 3” value under setting [1] turned out to be 208 % C. Further, the IC20 under setting [5] was 121 µM.
As to […]-Ionone, the “TG as % C Compd 1” value under setting [6] is reported as 68 % C.
Regarding `CCCCC/C=C\C/C=C\CCCCCCCC(=O)NCCO` [Linoleoyl Monoethanolamide (LAMEA)], the “TG as % C, Compd 3” value under setting [1] worked out at 127 % C.
For the compound `O=C(O)CCCCCCCCCCCCCCC(=O)O` [Hexadecanedioic Acid], the “TG as % C Compd 2” value amounted to 90 % C under setting [2] and 125 % C (compound 2 alone, with retinol). In addition, the IC20 under setting [5] is 84 µM. For the same compound, the IC50 under setting [4] was determined as 130 µM.
As to `CCCCCCCCCCCCCCCCC(O)C(=O)O` (stereo not drawn) [2-hydroxysteric acid, 2-Hydroxystearic acid], the “TG as % C Compd 2” value under setting [2] is recorded as 83 % C. The “TG as % C Compd 1” value (compound 1 alone, with retinol) worked out at 92 % C.
As to […]-Damascone, the “TG as % C, Compd 3” value under setting [1] is 89 % C.
As to `CCCCCCCCCCC(O)C(=O)NCCO` (stereo not drawn) [Hydroxyethyl-2-Hydroxy-C12 Amide, N-Hydroxyethyl-2-hydroxydodecyl amide], the IC50 worked out at 32.9 µM under setting [3] and 32.9 µM under setting [4]. Further, the IC20 under setting [5] was 24 µM.
Regarding `CCCCCCCCCCCCCCCC(=O)O` [Hexadecanoic acid], the “TG as % C Compd 2” value (compound 2 alone, with retinol) is on record as 95 % C.
As to `C/C=C\C(=O)C1C(C)=CCCC1(C)C` (stereo not drawn) [a-Damascone], the “TG as % C, Compd 3” value under setting [1] was found to be 89 % C.
As to `CCCCCCCC/C=C/CCCCCCCC(=O)O` [Elaidic Acid], the “TG as % C Compd 1” value under setting [6] is 93 % C. Also, the “TG as % C, Compd 3” value under setting [1] came to 93 % C. Besides, the IC20 under setting [5] came to 58.8 µM. In addition, under setting [4], the IC50 turned out to be 65 µM. The “TG as % C Compd 2” value (compound 2 alone, with retinol) was 144 % C.
For the compound Dimethyl Imidazolidinone, for the setting “% (booster+retinol inhibition/control inhibition) − % (ROH inhibition/control inhibition)”, the “% Inhibition Overall TG (—ROH/RE)” value worked out at 22%. For the setting “compound 1 alone, with retinol”, the “TG as % C Compd 1” value amounted to 99 % C.
With `CCCCC/C=C\C/C=C\CCCCCCCC(=O)NCCO` [Linoleoyl Monoethanolamide], the IC50 under setting [3] worked out at 16.1 µM and the IC50 under setting [4] came out at 16.1 µM. For the same compound, under setting [5], the IC20 is 14.8 µM.
In the case of `O=c1ccc2ccccc2o1` [Coumarin], the “TG as % C, Compd 3” value under setting [1] worked out at 80 % C. Also, where the note is “compound 2 alone, with retinol”, the “TG as % C Compd 2” value came out at 96 % C.
Dimethyl imidazolinone: under setting [2], the “TG as % C Compd 2” value is 87 % C. In addition, under setting [1], the “TG as % C, Compd 3” value is recorded as 87 % C.
`COc1cc(NS(C)(=O)=O)ccc1Nc1c2ccccc2nc2ccccc12` [Amsacrine, reference compound]: the “TG as % C Compd 1” value is, setting by setting: under setting [6], 79 % C; (compound 1 alone, with retinol) 102 % C. The “TG as % C Compd 2” value under setting [2] is 79 % C. Under setting [5], the IC20 was found to be 3.3 µM.
For the compound `CC(=O)/C=C/C1C(C)=CCCC1(C)C` (stereo not drawn) [a-Ionone], the “TG as % C, Compd 3” value under setting [1] is given as 88 % C.
For the compound `Oc1ccc2ccccc2n1` [Hydroxyquinoline (Carbostyril), 2-Hydroxyquinoline(Carbostyril)], the IC50 was found to be 364 µM (B5 table, with 10^−7 M retinol, read-out: Overall TG (IC 50)) and 364 µM under setting [4]. Moreover, under setting [1], the “TG as % C, Compd 3” value stood at 95 % C. Also, under setting [5], the IC20 was 170 µM.

For the origin of these results see US8409550B2, “Method for treating skin with retinoids and retinoid boosters” (Unilever Home & Personal Care, USA, Division of Conopco, …, priority 2000, dated 2013).
